Organism: Rattus norvegicus
Test: DrugMatrix - Regimen: Daily Repeat
Format: toxicity, organism-based, Sprague-Dawley
Design: regimen Daily Repeat, gender Male, age 6-8 weeks
Conditions: in vivo, sc, route subcutaneous, […]; for ABSOLUTE BASOPHIL / ABSOLUTE EOSINOPHIL / ABSOLUTE LYMPHOCYTE / ABSOLUTE MONOCYTE / ABSOLUTE SEGMENTED NEUTROPHIL / BASOPHIL / EOSINOPHIL / ERYTHROCYTE COUNT / HEMATOCRIT / HEMOGLOBIN / LEUKOCYTE COUNT / LYMPHOCYTE / MEAN CORPUSCULAR HEMOGLOBIN / MEAN CORPUSCULAR HEMOGLOBIN CONCENTRATION / MEAN CORPUSCULAR VOLUME / MONOCYTE / NEUTROPHIL / NUCLEATED RED BLOOD CELLS / PLATELET COUNT: tissue Blood; for ALANINE AMINOTRANSFERASE / ALBUMIN / ALKALINE PHOSPHATASE / ASPARTATE AMINOTRANSFERASE / BLOOD UREA NITROGEN / CARBON DIOXIDE / CHLORIDE / CHOLESTEROL / CREATINE PHOSPHOKINASE / CREATININE / GLUCOSE / LACTATE DEHYDROGENASE / LIPASE / PHOSPHORUS / POTASSIUM / SODIUM / TOTAL BILIRUBIN / TOTAL PROTEIN / URIC ACID: tissue Plasma
[1] = 27 mg/kg, 120 h, dose level Low, time 5 day
[2] = 1200 mg/kg, 72 h, dose level High, time 3 day
[3] = 1200 mg/kg, 120 h, dose level High, time 5 day

Clc1ccc(CSC(Cn2ccnc2)c2ccc(Cl)cc2Cl)cc1 (centres undefined) [SULCONAZOLE]
ABSOLUTE BASOPHIL [1]: 0 CELLS/uL
ABSOLUTE EOSINOPHIL [1]: 176 CELLS/uL
ABSOLUTE LYMPHOCYTE [1]: 10589.67 CELLS/uL
ABSOLUTE MONOCYTE [1]: 178.33 CELLS/uL
ABSOLUTE SEGMENTED NEUTROPHIL [1]: 2489.33 CELLS/uL
BASOPHIL [1]: 0%
EOSINOPHIL [1]: 1.33%
ERYTHROCYTE COUNT [1]: 5.26 x10E6/uL
HEMATOCRIT [1]: 33.93%
HEMOGLOBIN [1]: 13 G/DL
LEUKOCYTE COUNT [1]: 13.43 x10E3/uL
LYMPHOCYTE [1]: 78.33%
MEAN CORPUSCULAR HEMOGLOBIN [1]: 24.73 pg
MEAN CORPUSCULAR HEMOGLOBIN CONCENTRATION [1]: 38.3 G/DL
MEAN CORPUSCULAR VOLUME [1]: 64.6 fL
MONOCYTE [1]: 1.33%
NEUTROPHIL [1]: 19%
NUCLEATED RED BLOOD CELLS [1]: 0 /100WBC
PLATELET COUNT [1]: 1332 x10E3/uL
ALANINE AMINOTRANSFERASE [1]: 56 u/L
ALBUMIN [1]: 3.9 G/DL
ALKALINE PHOSPHATASE [1]: 279.67 u/L
ASPARTATE AMINOTRANSFERASE [1]: 81.67 u/L
BLOOD UREA NITROGEN [1]: 17 mg/dL
CARBON DIOXIDE [1]: 25.33 mmol/L
CHLORIDE [1]: 105.67 MEQ/L
CHOLESTEROL [1]: 64.67 mg/dL
CREATINE PHOSPHOKINASE [1]: 435.33 u/L
CREATININE [1]: 0.16 mg/dL
GLUCOSE [1]: 162.33 mg/dL
LACTATE DEHYDROGENASE [1]: 119.67 u/L
LIPASE [1]: 7.33 u/L
PHOSPHORUS [1]: 14.4 mg/dL
POTASSIUM [1]: 6.46 MEQ/L
SODIUM [1]: 145.43 MEQ/L
TOTAL BILIRUBIN [1]: 0.17 mg/dL
TOTAL PROTEIN [1]: 5.9 G/DL
URIC ACID [1]: 1.63 mg/dL
ABSOLUTE BASOPHIL [2]: 0 CELLS/uL
ABSOLUTE EOSINOPHIL [2]: 83.33 CELLS/uL
ABSOLUTE LYMPHOCYTE [2]: 7163.33 CELLS/uL
ABSOLUTE MONOCYTE [2]: 161.33 CELLS/uL
ABSOLUTE SEGMENTED NEUTROPHIL [2]: 2925.33 CELLS/uL
BASOPHIL [2]: 0%
EOSINOPHIL [2]: 1%
ERYTHROCYTE COUNT [2]: 5.45 x10E6/uL
HEMATOCRIT [2]: 33.7%
HEMOGLOBIN [2]: 12.87 G/DL
LEUKOCYTE COUNT [2]: 10.33 x10E3/uL
LYMPHOCYTE [2]: 68.33%
MEAN CORPUSCULAR HEMOGLOBIN [2]: 23.6 pg
MEAN CORPUSCULAR HEMOGLOBIN CONCENTRATION [2]: 38.2 G/DL
MEAN CORPUSCULAR VOLUME [2]: 61.83 fL
MONOCYTE [2]: 1.67%
NEUTROPHIL [2]: 29%
NUCLEATED RED BLOOD CELLS [2]: 0 /100WBC
PLATELET COUNT [2]: 1327 x10E3/uL
ALANINE AMINOTRANSFERASE [2]: 43 u/L
ALBUMIN [2]: 3.9 G/DL
ALKALINE PHOSPHATASE [2]: 294.67 u/L
ASPARTATE AMINOTRANSFERASE [2]: 79.33 u/L
BLOOD UREA NITROGEN [2]: 14 mg/dL
CARBON DIOXIDE [2]: 30 mmol/L
CHLORIDE [2]: 109 MEQ/L
CHOLESTEROL [2]: 69.33 mg/dL
CREATINE PHOSPHOKINASE [2]: 308.33 u/L
CREATININE [2]: 0.2 mg/dL
GLUCOSE [2]: 133.67 mg/dL
LACTATE DEHYDROGENASE [2]: 112.67 u/L
LIPASE [2]: 8 u/L
PHOSPHORUS [2]: 10.93 mg/dL
POTASSIUM [2]: 6.11 MEQ/L
SODIUM [2]: 149.45 MEQ/L
TOTAL BILIRUBIN [2]: 0.13 mg/dL
TOTAL PROTEIN [2]: 6.27 G/DL
URIC ACID [2]: 0.83 mg/dL
ABSOLUTE BASOPHIL [3]: 0 CELLS/uL
ABSOLUTE EOSINOPHIL [3]: 276.67 CELLS/uL
ABSOLUTE LYMPHOCYTE [3]: 12157 CELLS/uL
ABSOLUTE MONOCYTE [3]: 40.67 CELLS/uL
ABSOLUTE SEGMENTED NEUTROPHIL [3]: 4359 CELLS/uL
BASOPHIL [3]: 0%
EOSINOPHIL [3]: 1.67%
ERYTHROCYTE COUNT [3]: 5.75 x10E6/uL
HEMATOCRIT [3]: 35.17%
HEMOGLOBIN [3]: 13.07 G/DL
LEUKOCYTE COUNT [3]: 16.83 x10E3/uL
LYMPHOCYTE [3]: 72.33%
MEAN CORPUSCULAR HEMOGLOBIN [3]: 22.73 pg
MEAN CORPUSCULAR HEMOGLOBIN CONCENTRATION [3]: 37.2 G/DL
MEAN CORPUSCULAR VOLUME [3]: 61.23 fL
MONOCYTE [3]: 0.33%
NEUTROPHIL [3]: 25.67%
NUCLEATED RED BLOOD CELLS [3]: 0 /100WBC
PLATELET COUNT [3]: 1614.33 x10E3/uL
ALANINE AMINOTRANSFERASE [3]: 39.67 u/L
ALBUMIN [3]: 3.47 G/DL
ALKALINE PHOSPHATASE [3]: 268.67 u/L
ASPARTATE AMINOTRANSFERASE [3]: 76.33 u/L
BLOOD UREA NITROGEN [3]: 16.67 mg/dL
CARBON DIOXIDE [3]: 25 mmol/L
CHLORIDE [3]: 104.33 MEQ/L
CHOLESTEROL [3]: 59.67 mg/dL
CREATINE PHOSPHOKINASE [3]: 355 u/L
CREATININE [3]: 0.23 mg/dL
GLUCOSE [3]: 160.67 mg/dL
LACTATE DEHYDROGENASE [3]: 169.33 u/L
LIPASE [3]: 7.33 u/L
PHOSPHORUS [3]: 12.67 mg/dL
POTASSIUM [3]: 6.48 MEQ/L
SODIUM [3]: 144.93 MEQ/L
TOTAL BILIRUBIN [3]: 0.13 mg/dL
TOTAL PROTEIN [3]: 6.1 G/DL
URIC ACID [3]: 2.87 mg/dL

Reference: ChEMBL document CHEMBL3885881, “DrugMatrix”
